Drawing on patent US8431593B2, “Heteroaryl amide derivatives” (H. Lundbeck A/S, priority 2006, dated 2013), this text covers IC50 for 25 compounds.

The target in this experiment is T1, P2X7 receptor (Homo sapiens, UniProt Q99572).
T1 construct: host or cells: SH-SY5Y
T1 sequence (Q99572 1-595): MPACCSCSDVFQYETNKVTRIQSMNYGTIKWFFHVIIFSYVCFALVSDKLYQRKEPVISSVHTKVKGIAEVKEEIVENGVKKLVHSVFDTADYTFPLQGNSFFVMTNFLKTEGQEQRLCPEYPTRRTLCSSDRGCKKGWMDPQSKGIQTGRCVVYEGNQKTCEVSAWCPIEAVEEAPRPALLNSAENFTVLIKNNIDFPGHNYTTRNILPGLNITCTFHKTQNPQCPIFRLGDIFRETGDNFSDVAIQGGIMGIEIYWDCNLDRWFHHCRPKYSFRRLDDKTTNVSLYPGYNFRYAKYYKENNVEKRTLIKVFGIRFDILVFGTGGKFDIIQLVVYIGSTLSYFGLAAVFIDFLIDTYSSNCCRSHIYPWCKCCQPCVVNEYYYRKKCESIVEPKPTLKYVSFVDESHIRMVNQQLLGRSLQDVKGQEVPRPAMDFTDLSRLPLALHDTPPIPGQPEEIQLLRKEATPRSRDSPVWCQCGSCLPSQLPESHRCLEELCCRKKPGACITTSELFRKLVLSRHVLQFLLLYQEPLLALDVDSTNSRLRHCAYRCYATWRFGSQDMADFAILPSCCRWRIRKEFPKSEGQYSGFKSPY
Briefly: P2X7 calcium mobilization assay, high throughput, antagonist activity (Example 4A). The class given is cell-based. The settings on record: P2X7 calcium mobilization, Example 4A; 50% decrease in the fluorescence response of cells exposed to 80 μM of (2′(3′)-O-(4-benzoyl-benzoyl)adenosine 5′-triphosephate); read-out: IC50. In a few lines: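 Antagonism was measured as calcium mobilization on FLIPR^TETRA after a 1 h room-temperature compound preincubation of dye-loaded cells. Baseline from no-agonist wells was subtracted from each well's maximum RFU.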
(Calcium assays in cells follow changes in intracellular calcium, usually with a dye or a luminescent sensor.)

Where only a bound is given, the exact number is not on record here.

With `CC(=O)c1cn2c(C(=O)NCC(CC(C)C)c3ccc(Cl)cc3)cccc2n1` (stereo not shown) [Compound 1032, 2-acetyl-N-[2-(4-chlorophenyl)-4-methylpentyl] imidazo[1,2-a] pyridine-5-carboxamlde], the IC50 is below 2000 nM.

Take `CC(C)CC(CNC(=O)c1cccc2nc(C(C)N3CCC3)cn12)c1ccc(Cl)cc1` (stereo not shown) [Compound 1033, 2-(1-azetidin-1-ylethyl)-N-[2-(4-chlorophenyl)-4-methylpentyl] imidazo[1,2-a] pyridine-5-carboxamide]: the half-inhibitory concentration (IC50) was below 2000 nM.

For the compound `CC(C)CC(CNC(=O)c1cccc2nc(CN3CCC3)cn12)c1ccc(Cl)cc1` (stereo not shown) [Compound 1034, 2-(azetidin-1-ylmethyl)-N-[2-(4-chlorophenyl)-4-methylpentyl] imidazo[1,2-a] pyridine-5-carboxamide], the IC50 is below 2000 nM.

In the case of `CC(C)CC(CNC(=O)c1cccc2nc(C(C)N3CCCC3)cn12)c1ccc(Cl)cc1` (stereo not shown) [Compound 1035, N-[2-(4-chlorophenyl)-4-methylpentyl]-2-(1-pyrrolidin-1-ylethyl) imidazo[1,2-a]pyridine-5-carboxamide], the IC50 is below 2000 nM.

Turning to `CC(C)CC(CNC(=O)c1cccc2nc(CN3CCCC3)cn12)c1ccc(Cl)cc1` (stereo not shown) [Compound 1036, N-[2-(4-chlorophenyl)-4-methylpentyl]-2-(pyrrolidin-1-ylmethyl) imidazo[1,2-a]pyridine-5-carboxamide], the IC50 was below 2000 nM.

`CC(C)CC(CNC(=O)c1cccc2nc(C(C)N3CCOCC3)cn12)c1ccc(Cl)cc1` (stereo not shown) [Compound 1037, N-[2-(4-chlorophenyl)-4-methylpentyl]-2-(1-morpholin-4-ylethyl) imidazo[1,2-a]pyridine-5-carboxamide]: the IC50 is below 2000 nM.

As to `CC(C)CC(CNC(=O)c1cccc2nc(CN3CCOCC3)cn12)c1ccc(Cl)cc1` (stereo not shown) [Compound 1038, N-[2-(4-chlorophenyl)-4-methylpentyl]-2-(morpholin-4-ylmethyl) imidazo[1,2-a]pyridine-5-carboxamide], the IC50 is below 2000 nM.

Consider `CC(C)CC(CNC(=O)c1cccc2nc(CN3CC[C@@H](N(C)C)C3)cn12)c1ccc(Cl)cc1` (stereo partly drawn) [Compound 1039, N-[2-(4-chlorophenyl)-4-methylpentyl]-2-{[(3R)-3-(dimethylamino)pyrrolidin-1-yl]methyl} imidazo[1,2-a]pyridine-5-carboxamide], for which the IC50 is below 2000 nM.

Turning to `O=C(NCC12CC3CC(CC(C3)C1)C2)c1cccc2nc(CCN3CCCC3)cn12` [Compound 1040, N-(adamantan-1-ylmethyl)-2-(2-pyrrolidin-1-ylethyl) imidazo [1,2-a]pyridine-5-carboxamide], the IC50 was below 2000 nM.

On to `CC(C)CC(CNC(=O)c1cccc2nc(CCN3CCCC3)cn12)c1ccc(Cl)cc1` (stereo not shown) [Compound 1041, N-[2-(4-chlorophenyl)-4-methylpentyl]-2-(2-pyrrolidin-1-ylethyl) imidazo[1,2-a]pyridine-5-carboxamide], for which the IC50 was below 2000 nM.

On to `CC(C)CC(CNC(=O)c1cccc2nc(CCN3CCCC3)cn12)c1ccc(C(F)(F)F)cc1` (stereo not shown) [Compound 1042, N-{4-methyl-2-[4-(Irifluoromethyl)phenyl]pentyl}-2-(2-pyrrolidin-1-ylethyl) imidazo[1,2-a]pyridine-5-carboxamide], for which the IC50 was below 2000 nM.

Take `O=C(NCC1(c2ccc(C(F)(F)F)cc2)CCCCC1)c1cccc2nc(CN3CCCC3)cn12` [Compound 1044, 2-(pyrrolidin-1-ylmethyl)-N-({1-[4-(trifluoromethyl)phenyl]cyclohexyl}methyl) imidazo[1,2-a] pyridine-5-carboxamide]: the IC50 is below 2000 nM.

With `O=C(NCC1(c2ccc(F)cc2)CCCCC1)c1cccc2nc(CN3CCCC3)cn12` [Compound 1045, N-{[1-(4-fluorophenyl)cyclohexyl]methyl}-2-(pyrrolidin-1-ylmethyl) imidazo[1,2-a]pyridine-5-carboxamide], the IC50 is below 2000 nM.

As for `O=C(NCC1(c2ccc(Cl)c(F)c2)CCCCC1)c1cccc2nc(CN3CCCC3)cn12` [Compound 1046, N-{[1-(4-chloro-3-fluorophenyl)cyclohexyl]methyl}-2-(pyrrolidin-1-ylmethyl) imidazo[1,2-a]pyridine-5-carboxamide], the IC50 is below 2000 nM.

For `O=C(NCC1(c2ccc(Cl)cc2)CCCCC1)c1cccc2nc(CN3CCCC3)cn12` [Compound 1047, N-{[1-(4-chlorophenyl)cyclohexyl]methyl}-2-(pyrrolidin-1-ylmethyl) imidazo[1,2-a]pyridine-5-carboxamide], the IC50 was below 2000 nM.

On to `Cc1ccc(C(CNC(=O)c2cccc3nc(CN4CCCC4)cn23)CC(C)C)cc1` (stereo not shown) [Compound 1048, N-[4-methyl-2-(4-methylphenyl)pentyl]-2-(pyrrolidin-1-ylmethyl) imidazo [1,2-a] pyridine-5-carboxamide], for which the IC50 is below 2000 nM.

For `Cc1ccc(C2(CNC(=O)c3cccc4nc(CN5CCCC5)cn34)CCCCC2)cc1` [Compound 1049, N-{[1-(4-methylphenyl)cyclohexyl]methyl}-2-(pyrrolidin-1-ylmethyl) imidazo[1,2-a]pyridine-5-carboxamide], the IC50 is below 2000 nM.

Consider `CN1CCCC(NC(=O)Cc2cn3c(C(=O)NCC45CC6CC(CC(C6)C4)C5)cccc3n2)C1` (stereo not shown) [Compound 1050, N-(adamantan-1-ylmethyl)-2-{2-[(1-methylpiperidin-3-yl)amino]-2-oxoethyl} imidazo[1,2-a]pyridine-5-carboxamide], for which the half-maximal inhibitory concentration (IC50) was below 2000 nM.

Consider `CC(C)CC(CNC(=O)c1cccc2nccn12)c1ccc(C(F)(F)F)nc1` (stereo not shown) [Compound 1051, N-{4-methyl-2-[6-(trifluoromethyl)pyridin-3-yl]pentyl} imidazo[1,2-a]pyridine-5-carboxamide], for which the IC50 was below 2000 nM.

Regarding `CC(C)CC(CNC(=O)c1cccc2ncc(Cl)n12)c1ccc(C(F)(F)F)nc1` (stereo not shown) [Compound 1052, 3-chloro-N-{4-methyl-2-[6-(trifluoromethyl)pyridin-3-yl]pentyl} imidazo[1,2-a]pyridine-5-carboxamide], the IC50 is below 2000 nM.

For `CC(C)CC(CNC(=O)c1cccc2nc(CN3CCOCC3)cn12)c1ccc(C(F)(F)F)nc1` (stereo not shown) [Compound 1053, N-{4-methyl-2-[6-(trifluoromethyl)pyridin-3-yl]pentyl}-2-(morpholin-4-ylmethyl) imidazo[1,2-a]pyridine-5-carboxamide], the IC50 is below 2000 nM.

In the case of `O=C(NCC(c1ccc(Cl)cc1)N1CCCCC1)c1cccc2ncc(Cl)n12` (stereo not shown) [Compound 1054, 3-chloro-N-[2-(4-chlorophenyl)-2-piperidin-1-ylethyl]imidazo[1,2-a]pyridine-5-carboxamide], the IC50 is below 2000 nM.

On to `O=C(NCC(c1ccc(Cl)cc1)N1CCOCC1)c1cccc2ncc(Cl)n12` (stereo not shown) [Compound 1055, 3-chloro-N-[2-(4-chlorophenyl)-2-morpholin-4-ylethyl]imidazo[1,2-a]pyridine-5-carboxamide], for which the IC50 is below 2000 nM.

Consider `O=C(NCC(c1ccc(Cl)cc1)N1CCCCC1)c1cccc2ncc(Br)n12` (stereo not shown) [Compound 1056, 3-bromo-N-[2-(4-chlorophenyl)-2-piperidin-1-ylethyl]imidazo[1,2-a]pyridine-5-carboxamide], for which the IC50 was below 2000 nM.

`O=C(NCC(c1ccc(Cl)cc1)N1CCOCC1)c1cccc2ncc(Br)n12` (stereo not shown) [Compound 1057, 3-bromo-N-[2-(4-chlorophenyl)-2-morpholin-4-ylethyl] imidazo[1,2-a] pyridine-5-carboxamide]: the IC50 is below 2000 nM.

One may read the IC50 as the concentration that gives 50% inhibition.
